We go through 18 molecules from US11976083B2, “Inhibitors of peptidylarginine deiminases” (Gilead Sciences, Inc., priority 2020, dated 2024).

pIC50: −log10 of the molar value.

The pIC50 is −log10 of the IC50, conventionally taken in molar units.

T1 sequence (Q9UM07 2-663): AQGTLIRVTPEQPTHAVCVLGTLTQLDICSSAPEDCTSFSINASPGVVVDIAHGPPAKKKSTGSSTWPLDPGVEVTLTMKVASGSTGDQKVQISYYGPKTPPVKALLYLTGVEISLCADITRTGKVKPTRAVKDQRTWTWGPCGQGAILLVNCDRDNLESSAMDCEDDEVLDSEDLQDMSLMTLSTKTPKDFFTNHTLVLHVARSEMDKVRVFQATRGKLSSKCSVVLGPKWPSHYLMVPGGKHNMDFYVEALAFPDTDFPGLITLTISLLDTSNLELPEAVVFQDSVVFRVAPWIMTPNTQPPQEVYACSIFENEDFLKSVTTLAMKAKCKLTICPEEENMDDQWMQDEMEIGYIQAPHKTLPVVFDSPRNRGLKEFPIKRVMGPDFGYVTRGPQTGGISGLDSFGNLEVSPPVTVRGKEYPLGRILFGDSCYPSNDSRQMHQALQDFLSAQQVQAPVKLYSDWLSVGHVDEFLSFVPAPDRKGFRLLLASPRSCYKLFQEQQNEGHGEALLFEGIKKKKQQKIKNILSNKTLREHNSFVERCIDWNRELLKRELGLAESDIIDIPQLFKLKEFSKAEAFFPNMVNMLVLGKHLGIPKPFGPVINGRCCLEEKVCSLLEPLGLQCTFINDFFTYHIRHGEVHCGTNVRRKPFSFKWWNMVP

The test concerns the target T1, human PAD4 (Homo sapiens, UniProt Q9UM07).
T1 construct: human PAD4 (NM_012387), A2-P663, was PCR amplified; His-SUMO (N, cleaved yes); made in house; host or cells: E. coli BL21(DE3)
As to the kind of experiment: In vitro PAD4 BAEE biochemical assay. Conditions: BAEE substrate 3 mM, 5 nM PAD4, 2 mM calcium chloride; geometric mean of multiple experiments. In outline: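 Recombinant PAD4 (5 nM final) with 2 mM CaCl2 was preincubated with compound for 30 min at 25 °C in MOPS pH 7.6 buffer with DTT, then reacted with 3 mM BAEE for 2 h at 25 °C. Released ammonia was detected fluorimetrically with o-phthalaldehyde/DTT; IC50 from four-parameter fit, geometric mean of experiments.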
For the molecule `COc1cc(C(=O)N[C@H]2CNCC[C@@H]2F)cc2nc(-c3cc4ccc5nc4n3CCCCC[C@H]3[C@H](C(=O)N[C@@H]5C)C3(F)F)n(C)c12` [Example 368, 2-[(2~{R},5~{R},7~{S})-6,6-difluoro-2-methyl-4-oxo-3,13,19-triazatetracyclo[11.5.2.0^{5,7}.0^{16,20}]icosa-1(19),14,16(20),17-tetraen-14-yl]- ~{N}-[(3~{S},4~{S})-4-fluoro-3-piperidyl]-7-methoxy-1-methyl-benzimidazole-5-carboxamide], the pIC50 is 7.47. For `COc1cc(C(=O)N[C@H]2CNCC[C@@H]2F)cc2nc(-c3cc4ccc5nc4n3CCCCC[C@@H]3[C@@H](C(=O)N[C@@H]5C)C3(F)F)n(C)c12` [Example 369, 2-[(2~{R},5~{S},7~{R})-6,6-difluoro-2-methyl-4-oxo-3,13,19-triazatetracyclo[11.5.2.0^{5,7}.0^{16,20}]icosa-1(19),14,16(20),17-tetraen-14-yl]- ~{N}-[(3~{S},4~{S})-4-fluoro-3-piperidyl]-7-methoxy-1-methyl-benzimidazole-5-carboxamide], the pIC50 was 7.43. In the case of `COc1cc(C(=O)N2CC[C@@H](OC)[C@@H](N)C2)cc2nc(-c3cc4ccc5nc4n3C[C@H]3C[C@H]3CCC[C@](C)(C(F)(F)F)C(=O)N[C@@H]5C)n(C)c12` [Example 370, (3~{S),5~{R},9~{S},12~{R})-18-[5-[(3~{S},4~{R})-3-amino-4-methoxy-piperidine-1-carbonyl]-7-methoxy-1-methyl-benzimidazol-2-yl]-9,12-dimethyl-9-(trifluoromethyl)-1,11,20-triazatetracyclo[11.5.2.0^{3,5}.0^{16,19}] icosa-13(20),14,16(19),17-tetraen-10-one], the negative logarithm of the IC50 (pIC50) was 6.79. Regarding `COc1cc(C(=O)N[C@H]2CNCC[C@@H]2F)cc2nc(-c3cc4ccc5nc4n3C[C@H]3C[C@H]3CCC[C@](C)(C(F)(F)F)C(=O)N[C@@H]5C)n(C)c12` [Example 371, 2-[(3~{S},5~{R},9~{S},12~{R})-9,12-dimethyl-10-oxo-9-(trifluoromethyl)-1,11,20-triazatetracyclo[11.5.2.0^{3,5}.0^{16,19}]icosa-13(20),14,16(19),17-tetraen-18-yl]-~{N}-[(3~{S},4~{S})-4-fluoro-3-piperidyl]-7-methoxy-1-methyl-benzimidazole-5-carboxamide], the negative logarithm of the IC50 (pIC50) was 6.65. As for `COc1cc(C(=O)N2CC[C@@H](OC)[C@@H](N)C2)cc2nc(-c3cc4ccc5nc4n3C[C@H]3C[C@H]3CCC[C@@](C)(C(F)(F)F)C(=O)N[C@@H]5C)n(C)c12` [Example 372, (3~{S},5~{R},9~{R},12~{R})-18-[5-[(3~{S},4~{R})-3-amino-4-methoxy-piperidine-1-carbonyl]-7-methoxy-1-methyl-benzimidazol-2-yl]-9,12-dimethyl-9-(trifluoromethyl)-1,11,20-triazatetracyclo[11.5.2.0^{3,5}.0^{16,19}] icosa-13(20),14,16(19),17-tetraen-10-one], the pIC50 was 6.74. The figure for `COc1cc(C(=O)NC2CNCC[C@@H]2F)cc2nc(-c3cc4ccc5nc4n3C[C@H]3C[C@H]3CCC[C@@](C)(C(F)(F)F)C(=O)N[C@@H]5C)n(C)c12` (stereo partly drawn) [Example 373, 2-[(3~{S},5~{R},9~{R},12~{R})-9,12-dimethyl-10-oxo-9-(trifluoromethyl)-1,11,20-triazatetracyclo[11.5.2.0^{3,5}.0^{16,19}]icosa-13(20),14,16(19),17-tetraen-18-yl]-~{N}-[(3~{S},4~{S})-4-fluoro-3-piperidyl]-7-methoxy-1-methyl-benzimidazole-5-carboxamide] is 6.60. On to `COc1cc(C(=O)N2CC[C@@H](OC)[C@@H](N)C2)cc2nc(-c3cc4ccc5nc4n3CCCCCCC(F)(F)C(=O)N[C@@H]5C)n(C)c12` [Example 374, (11~{R})-17-[5-[(3~{S},4~{R})-3-amino-4-methoxy-piperidine-1-carbonyl]-7-methoxy-1-methyl-benzimidazol-2-yl]-8,8-difluoro-11-methyl-1,10,19-triazatricyclo[10.5.2.0^{15,18}]nonadeca-12(19),13,15(18),16-tetraen-9-one], for which the pIC50 is 6.92.

Regarding `COc1cc(C(=O)N[C@H]2CNCC[C@@H]2F)cc2nc(-c3cc4ccc5nc4n3CCCCCCC(F)(F)C(=O)N[C@@H]5C)n(C)c12` [Example 375, 2-[(11~{R})-8,8-difluoro-11-methyl-9-oxo-1,10,19-triazatricyclo[10.5.2.0^{15,18}]nonadeca-12(19),13,15(18),16-tetraen-17-yl]-~ {N}-[(3~{S},4~{S})-4-fluoro-3-piperidyl]-7-methoxy-1-methyl-benzimidazole-5-carboxamide], the pIC50 is 6.96.

On to `C[C@H]1NC(=O)C(C)(C)CCCCCCn2c(-c3nc4cc(C(=O)N[C@H]5CNCC[C@@H]5F)ccc4n3C3CC3)cc3ccc1nc32` [Example 376, 1-cyclopropyl-~{N}-[(3~{S},4~{S})-4-fluoro-3-piperidyl]-2-[(11~{R})-8,8,11-trimethyl-9-oxo-1,10,19-triazatricyclo[10.5.2.0^{15,18}]nonadeca-12(19),13,15(18),16-tetraen-17-yl]benzimidazole-5-carboxamide], for which the negative logarithm of the IC50 (pIC50) is 7.09.

As to `C[C@H]1NC(=O)[C@@H]2[C@@H](CCCC(F)(F)Cn3c(-c4nc5cc(C(=O)N[C@H]6CNCC[C@@H]6F)c(F)cc5n4C)cc4ccc1nc43)C2(F)F` [Example 377, 6-fluoro-~{N}-[(3~{S},4~{S})-4-fluoro-3-piperidyl]-1-methyl-2-[(2~{R},5~{S},7~{R})-6,6,11,11-tetrafluoro-2-methyl-4-oxo-3,13,19-triazatetracyclo[11.5.2.0^{5,7}.0^{16,20}]icosa-1(19),14,16(20),17-tetraen-14-yl]benzimidazole-5-carboxamide], the pIC50 is 7.49. In the case of `C[C@H]1NC(=O)[C@H]2[C@H](CCCC(F)(F)Cn3c(-c4nc5cc(C(=O)N[C@H]6CNCC[C@@H]6F)c(F)cc5n4C)cc4ccc1nc43)C2(F)F` [Example 378, 6-fluoro-~{N}-[(3~{S},4~{S})-4-fluoro-3-piperidyl]-1-methyl-2-[(2~{R},5~{R},7~{S})-6,6,11,11-tetrafluoro-2-methyl-4-oxo-3,13,19-triazatetracyclo[11.5.2.0^{5,7}.0^{16,20}]icosa-1(19),14,16(20),17-tetraen-14-yl]benzimidazole-5-carboxamide] it was 7.39; in that of `C[C@H]1NC(=O)[C@H]2C[C@@H]2CC[C@@H]2C[C@@H]2Cn2c(-c3nc4cc(C(=O)N[C@H]5CNCC[C@@H]5F)c(F)cc4n3C)cc3ccc1nc32` [Example 379, 6-fluoro-~{N}-[(3~{S),4~{S})-4-fluoro-3-piperidyl]-1-methyl-2-[(3~{S},5~{R},8~{S},10~{S},13~{R})-13-methyl-11-oxo-1,12,21-triazapentacyclo[12.5.2.0^{3,5}.0^{8,10}.0^ {17,20}]henicosa-14(21),15,17(20),18-tetraen-19-yl]benzimidazole-5-carboxamide], 5.69; in that of `COc1cc(C(=O)N[C@H]2CNCC[C@@H]2C(F)(F)F)cc2nc(-c3cc4ccc5nc4n3CCCCCCC(C)(C)C(=O)N[C@@H]5C)n(C)c12` [Example 380, 7-methoxy-1-methyl-~{N}-[(3~{R},4~{S})-4-(trifluoromethyl)-3-piperidyl]-2-[(11~{R})-8,8,11-trimethyl-9-oxo-1,10,19-triazatricyclo[10.5.2.0^{15,18}]nonadeca-12(19),13,15(18),16-tetraen-17-yl]benzimidazole-5-carboxamide], 5.90. In the case of `C[C@H]1NC(=O)[C@H]2[C@H](CCCCCn3c(-c4nc5cc(C(=O)N[C@H]6CNCC[C@@H]6F)c(F)cc5n4C)cc4ccc1nc43)C2(F)F` [Example 383, 2-[(2˜{R},5˜{R},7˜{S})-6,6-difluoro-2-methyl-4-oxo-3,13,19-triazatetracyclo[11.5.2.0^{5,7}.0^{16,20}]icosa-1(19),14,16(20),17-tetraen-14-yl]-6-fluoro-˜{N}-[(3˜{S},4˜{S})-4-fluoro-3-piperidyl]-1-methyl-benzimidazole-5-carboxamide], the pIC50 is 7.55.

For the molecule `C[C@H]1NC(=O)c2c(cccc2C(F)F)CCCCCn2c(-c3nc4cc(C(=O)N[C@H]5CNCC[C@@H]5F)c(F)cc4n3C)cc3ccc1nc32` [Example 384, 2-[(2~{R})-6-(difluoromethyl)-2-methyl-4-oxo-3,16,22-triazatetracyclo[14.5.2.0^{5,10}.0^{19,23}]tricosa-1(22),5(10),6,8,17,19(23),20-heptaen-17-yl]-6-fluoro-~{N}-[(3~{S},4~{S})-4-fluoro-3-piperidyl]-1-methyl-benzimidazole-5-carboxamide], the negative-log IC50 (pIC50) is 7.21. Take `C[C@H]1NC(=O)[C@@H]2C[C@H]2CC[C@@H]2[C@H](Cn3c(-c4nc5cc(C(=O)N[C@H]6CNCC[C@@H]6F)c(F)cc5n4C)cc4ccc1nc43)C2(F)F` [Example 386, 2-[(3~{R},5~{R},8~{R},10~{R},13~{R})-4,4-difluoro-13-methyl-11-oxo-1,12,21-triazapentacyclo[12.5.2.0^{3,5}.0^{8,10}.0^ {17,20}]henicosa-14(21),15,17(20),18-tetraen-19-yl]-6-fluoro-~{N}-[(3~{S},4~{S})-4-fluoro-3-piperidyl]-1-methyl-benzimidazole-5-carboxamide]: the negative logarithm of the IC50 (pIC50) is 7.62. In the case of `C[C@H]1NC(=O)[C@]2(F)C[C@H]2CCCCCn2c(-c3nc4cc(C(=O)N[C@H]5CNCC[C@@H]5F)c(F)cc4n3C3CC3)cc3ccc1nc32` [Example 387, 1-cyclopropyl-6-fluoro-2-[(2~{R},5~{S},7~{R})-5-fluoro-2-methyl-4-oxo-3,13,19-triazatetracyclo[11.5.2.0^{5,7}.0^{16,20}]icosa-1(19),14,16(20),17-tetraen-14-yl]-~ {N}-[(3~{S},4~{S})-4-fluoro-3-piperidyl]benzimidazole-5-carboxamide] it was 7.60. On to `C[C@H]1NC(=O)[C@@H]2C[C@@]2(F)CCCCCn2c(-c3nc4cc(C(=O)N[C@H]5CNCC[C@@H]5F)c(F)cc4n3C3CC3)cc3ccc1nc32` [Example 388], for which the negative-log IC50 (pIC50) is 7.92.
